From patent publication US20250109140A1, “5-[5-(PIPERIDIN-4-YL)THIENO[3,2-C]PYRAZOL-2-YL]INDAZOLE DERIVATIVES AND RELATED COMPOUNDS AS MODULATORS FOR SPLICING NUCLEIC ACIDS AND FOR THE TREATMENT OF PROLIFERATIVE DISEASES” (REMIX THERAPUTICS INC., priority 2022, published 2025)
pEC50, pIC50: −log10 of the molar value. Counter-ions that a name gives are not always drawn. Like-named read-outs stand apart in the source and are kept apart here.

What was measured:
Type in all cases: cell-based
HTT mRNA = assay: Splicing RT-qPCR assay, HTT canonical (CJ) and alternative (AJ) junction mRNA; conditions: Homo sapiens; for pEC50: AC50 = 50% response in AJ mRNA increase
Protocol: (§1) Compounds described herein were used to modulate RNA transcript abundance in cells. The expression of a target mRNA was measured by detecting the formation of an exon-exon junction in the canonical transcript (CJ). A compound mediated exon-inclusion event was detected by observing an increase in formation of a new junction with an alternative exon (AJ). Real-time qPCR assays were used to detect these splicing switches and interrogate the potency of various compounds towards different target genes. A high-throughput real time quantitative PCR (RT-qPCR) assay was developed to measure these two isoforms of the mRNA (CJ and AJ) for exemplary genes, such as HTT, SMN2, and MYB, together with a control housekeeping gene, GAPDH or GUSB or PPIA, used for normalization. Briefly, the A673 or K562 cell line was treated with various compounds described herein (e.g., compounds of Formula (I)). After treatment, the levels of the HTT, MYB, or SMN2 mRNA targets were determined from each sample of cell lysate by cDNA synthesis followed by qPCR.
(§2) The A673 cell line was cultured in DMEM with 10% FBS. Cells were diluted with full growth media and plated in a 96-well plate (15,000 cells in 100 ul media per well). The plate was incubated at 37° C. with 5% CO2 for 24 hours to allow cells to adhere. An 11-point 3-fold serial dilution of the compounds was made in DMSO then diluted in media in an intermediate plate. Compounds were transferred from the intermediate plate to the cell plate with the top dose at a final concentration of 10 uM in the well. Final DMSO concentration was kept at or below 0.25%. The cell plate was returned to the incubator at 37° C. with 5% CO2 for an additional 24 hours.
(§3) The K562 cell line was cultured in IMDM with 10% FBS. For K562, cells were diluted with full growth media and plated in either a 96-well plate (50,000 cells in 50 uL media per well) or a 384-well plate (8,000-40,000 cells in 45 uL media per well). An 11-point 3-fold serial dilution of the compounds were made in DMSO then diluted in media in an intermediate plate. Compound was transferred from the intermediate plate to the cell plate with the top dose at a final concentration of 10 uM in the well. Final DMSO concentration was kept at or below 0.25%. Final volume was 100 uL for 96-well plate and 50 uL for 384-well plate. The cell plate was then placed in an incubator at 37° C. with 5% CO2 for 24 hours.
(§4) The cells were then gently washed with 50 uL-100 uL cold PBS before proceeding to addition of lysis buffer. 30 uL-50 uL of room temperature lysis buffer with DNAse I (and optionally RNAsin) was added to each well. Cells were shaken/mixed thoroughly at room temperature for 5-10 minutes for lysis to take place and then 3 uL-5 uL of room temperature stop solution was added and wells were shaken/mixed again. After 2-5 minutes, the cell lysate plate was transferred to ice for RT-qPCR reaction setup. The lysates could also be frozen at-80° C. for later use.
(§5) In some cases, a direct lysis buffer was used. An appropriate volume of 3× lysis buffer (10 mM Tris, 150 mM NaCl, 1.5%-2.5% Igepal and 0.1-1 U/uL RNAsin, pH 7.4) was directly added to either K562 or A673 cells in media and mixed by pipetting 3 times. The plates were then incubated at room temperature with shaking/rocking for 20-50 minutes to allow for lysis to take place. After this time, the cell lysate plate was transferred to ice to set up for the RT-qPCR reactions. The lysates could also be frozen at −80° C. for later use.
(§6) To set up 10 uL RT-qPCR reactions, cell lysates were transferred to 384-well qPCR plates containing the master mix according to the table below. The plates were sealed, gently vortexed, and spun down before the run. The volumes were adjusted accordingly in some instances where the reaction was carried in 20 μL. The table below summarizes the components of the RT-qPCR reactions:
(§7) The RT-qPCR reaction was performed using a QuantStudio (ThermoFisher) under the following fast cycling conditions. […]

Target C mRNA = assay: Splicing RT-qPCR gene panel, Target C canonical junction (CJ) mRNA; conditions: Homo sapiens; Table 8; larger gene panel, decrease in CJ mRNA levels
Protocol: as §1, §2, §3, §4, §5, §6, §7

SMN2 mRNA = assay: Splicing RT-qPCR gene panel, SMN2 canonical junction (CJ) mRNA; conditions: Homo sapiens; Table 8; larger gene panel, decrease in CJ mRNA levels
Protocol: as §1, §2, §3, §4, §5, §6, §7

MYB mRNA = assay: Splicing RT-qPCR assay, MYB canonical (CJ) and alternative (AJ) junction mRNA; conditions: Homo sapiens; for pEC50: AC50 = 50% response in AJ mRNA increase
Protocol: as §1, §2, §3, §4, §5, §6, §7

[1] = Table 7, RT-qPCR, A673 or K562 cells, 24 hours treatment
[2] = Table 7, IC50 = 50% response in CJ mRNA decrease, RT-qPCR, A673 or K562 cells, 24 hours treatment, read-out: HTT CJ
[3] = Table 8, larger gene panel, decrease in CJ mRNA levels, read-out: HTT CJ IC50
[4] = Table 7, IC50 = 50% response in CJ mRNA decrease, RT-qPCR, A673 or K562 cells, 24 hours treatment, read-out: MYB CJ
[5] = Table 8, larger gene panel, decrease in CJ mRNA levels, read-out: MYB CJ IC50

Row | SMILES | pEC50 (HTT mRNA; [1]) | pIC50 (HTT mRNA; [2]) | pIC50 (HTT mRNA; [3]) | pIC50 (Target C mRNA) | pIC50 (SMN2 mRNA) | pEC50 (MYB mRNA; [1]) | pIC50 (MYB mRNA; [4]) | pIC50 (MYB mRNA; [5])
1 | Cc1nc2c(F)cc(-c3nc4sc(C5CCNCC5)cc4s3)cc2o1 [Compound 132, 4-fluoro-2-methyl-6-[5-(piperidin-4-yl)thieno[2,3-d][1,3]thiazol-2-yl]-1,3-benzoxazole] | > 7.00 | 6.00 to 7.00 | > 7.00 | 6.00 to 7.00 | 6.00 to 7.00 | 6.00 to 7.00 | 6.00 to 7.00 | 6.00 to 7.00
2 | Cc1cn2nc(-c3nc4sc(C5CCNCC5)cc4s3)cc2c(C)n1 [Compound 133, 4-(2-[4,6-dimethylpyrazolo[1,5-a]pyrazin-2-yl]thieno[2,3-d][1,3]thiazol-5-yl)piperidine] | 6.00 to 7.00 | 6.00 to 7.00 | 6.00 to 7.00 | 6.00 to 7.00 | 6.00 to 7.00 | 6.00 to 7.00 | 6.00 to 7.00 | 6.00 to 7.00
3 | Cn1cc2cc(-c3nc4sc(N5CCNCC5)cc4s3)cc(F)c2n1 [Compound 134, 7-fluoro-2-methyl-5-[5-(piperazin-1-yl)thieno[2,3-d][1,3]thiazol-2-yl]indazole] | > 7.00 | 6.00 to 7.00 | > 7.00 | 6.00 to 7.00 | > 7.00 | 6.00 to 7.00 | 6.00 to 7.00 | 6.00 to 7.00
4 | CC1CN(c2cc3sc(-c4cc(F)c5nn(C)cc5c4)nc3s2)CCN1 (stereo not shown) [Compound 135, 7-fluoro-2-methyl-5-[5-(3-methylpiperazin-1-yl)thieno[2,3-d][1,3]thiazol-2-yl]indazole] | 6.00 to 7.00 | 6.00 to 7.00 | 6.00 to 7.00 | 6.00 to 7.00 | > 7.00 | 6.00 to 7.00 | 6.00 to 7.00 | 6.00 to 7.00
5 | Cn1cc2cc(-c3nc4sc(N5CCNC6(CC6)C5)cc4s3)cc(F)c2n1 [Compound 136, 5-(5-[4,7-diazaspiro[2.5]octan-7-yl]thieno[2,3-d][1,3]thiazol-2-yl)-7-fluoro-2-methylindazole] | < 5.00 | < 5.00 | < 5.00 | < 5.00 | 6.00 to 7.00 | 6.00 to 7.00 | 5.00 to 6.00 | 6.00 to 7.00
6 | CCNC1CCN(c2cc3sc(-c4cc(F)c5nn(C)cc5c4)nc3s2)CC1 [Compound 137, N-ethyl-1-[2-(7-fluoro-2-methylindazol-5-yl)thieno[2,3-d][1,3]thiazol-5-yl]piperidin-4-amine] | 6.00 to 7.00 | 6.00 to 7.00 | 6.00 to 7.00 | 6.00 to 7.00 | > 7.00 | 6.00 to 7.00 | 6.00 to 7.00 | 6.00 to 7.00
7 | Cc1cn2cc(-c3nc4sc(C5CCNCC5)cc4s3)cc(Cl)c2n1 [Compound 139] | > 7.00 | > 7.00 | > 7.00 | > 7.00 | > 7.00 | > 7.00 | > 7.00 | > 7.00
8 | Cc1cn2cc(-c3nc4sc(C5CCNCC5)cc4s3)cc(C)c2n1 [Compound 140, 4-(2-[2,8-dimethylimidazo[1,2-a]pyridin-6-yl]thieno[2,3-d][1,3]thiazol-5-yl)piperidine hydrochloride] | > 7.00 | > 7.00 | > 7.00 | 6.00 to 7.00 | > 7.00 | 6.00 to 7.00 | 6.00 to 7.00 | 6.00 to 7.00
9 | CN1CCN(c2cc3sc(-c4cc(F)c5nn(C)cc5c4)nc3s2)CC1 [Compound 141, 7-fluoro-2-methyl-5-[5-(4-methylpiperazin-1-yl)thieno[2,3-d][1,3]thiazol-2-yl]indazole] | 6.00 to 7.00 | 6.00 to 7.00 | 6.00 to 7.00 | 5.00 to 6.00 | > 7.00 | 6.00 to 7.00 | 6.00 to 7.00 | 6.00 to 7.00
10 | Cn1cc2cc(-c3nc4sc(N5CCNC(C)(C)C5)cc4s3)cc(F)c2n1 [Compound 142, 5-[5-(3,3-dimethylpiperazin-1-yl)thieno[2,3-d][1,3]thiazol-2-yl]-7-fluoro-2-methylindazole] | 6.00 to 7.00 | 6.00 to 7.00 | 6.00 to 7.00 | 5.00 to 6.00 | > 7.00 | 6.00 to 7.00 | 6.00 to 7.00 | 6.00 to 7.00
11 | Cn1cc2cc(-c3nc4sc(N5CCC(NC(C)(C)C)C5)cc4s3)cc(F)c2n1 (stereo not shown) [Compound 143, N-tert-butyl-1-[2-(7-fluoro-2-methylindazol-5-yl)thieno[2,3-d][1,3]thiazol-5-yl]pyrrolidin-3-amine] | 5.00 to 6.00 | 5.00 to 6.00 | 5.00 to 6.00 | 5.00 to 6.00 | 6.00 to 7.00 | 6.00 to 7.00 | 5.00 to 6.00 | 6.00 to 7.00
12 | Cn1cc2cc(-c3nc4sc(N5CCN6CCCC6C5)cc4s3)cc(F)c2n1 (stereo not shown) [Compound 144, 7-fluoro-5-(5-[hexahydro-1H-pyrrolo[1,2-a]pyrazin-2-yl]thieno[2,3-d][1,3]thiazol-2-yl)-2-methylindazole] | 6.00 to 7.00 | 5.00 to 6.00 | 6.00 to 7.00 | < 5.00 | > 7.00 | 6.00 to 7.00 | 5.00 to 6.00 | 6.00 to 7.00
13 | CN1CCC(N(C)c2cc3sc(-c4cc(F)c5nn(C)cc5c4)nc3s2)CC1 [Compound 145, N-[2-(7-fluoro-2-methylindazol-5-yl)thieno[2,3-d][1,3]thiazol-5-yl]-N,1-dimethylpiperidin-4-amine] | < 5.00 | < 5.00 | < 5.00 | < 5.00 | 6.00 to 7.00 | 5.00 to 6.00 | 5.00 to 6.00 | 5.00 to 6.00
14 | CN1CC2(C1)CN(c1cc3sc(-c4cc(F)c5nn(C)cc5c4)nc3s1)C2 [Compound 146, 7-fluoro-2-methyl-5-(5-[6-methyl-2,6-diazaspiro[3.3]heptan-2-yl]thieno[2,3-d][1,3]thiazol-2-yl)indazole] | – | – | 6.00 to 7.00 | 6.00 to 7.00 | > 7.00 | – | – | 6.00 to 7.00
15 | Cn1cc2cc(-c3nc4sc(N5CCNCC5)c(Cl)c4s3)cc(F)c2n1 [Compound 147] | 6.00 to 7.00 | 6.00 to 7.00 | 6.00 to 7.00 | 5.00 to 6.00 | > 7.00 | > 7.00 | 6.00 to 7.00 | > 7.00
16 | CN1CCC(c2cc3sc(-c4cc(F)c5nn(C)cc5c4)nc3s2)CC1 [Compound 151, 7-fluoro-2-methyl-5-[5-(1-methylpiperidin-4-yl)thieno[2,3-d][1,3]thiazol-2-yl]indazole] | > 7.00 | > 7.00 | > 7.00 | 6.00 to 7.00 | > 7.00 | 5.00 to 6.00 | 6.00 to 7.00 | 5.00 to 6.00
